{"source": "patent US12216121B2", "about": "“Methods and compositions for spacial and temporal measurement of catalytic activity” (The University of Chicago, priority 2017, dated 2025)", "test": "Specificity of reporter dye (compound 8) towards metal ions and amino acids", "details": "1 mM metal ions, 5 mM H2O2 and amino acids, phosphate buffer pH 7.2; all tested except cysteine", "procedure": "FIG. 5C illustrates the sensitivity of sensing dye, (compound 8) in presence of different analyte such as 1. Phosphate buffer (pH=7.2), 1 mM of 2. Na+, 3. K+, 4. Ca2+, 5. Fe2+, 6. Zn2+, and 5 mM of 7. H2O2, 8. His, 9. Ser, 10. Lys, 11. Val, and 12. Cys. Each intensity is normalized from the intensity of compound 8 before treatment with respective analytes.\nThe specificity of reporter dye was checked towards thiol disulfide exchange reaction and treated the reporter dye (compound 8) with different metal ions and amino acids.", "data": [{"substance": "thiopyridyl conjugated blocked 6′-O propargyl fluorescein [compound 8]", "values": [{"measurement": "reaction with metal ions and amino acids (fluorescence)", "result": "No reaction was observed"}]}]}
